According to patent US7291730B2, “Pyrimidine compounds and their use” (Sumitomo Chemical Company, Limited, priority 2000, dated 2007):

system: not given; assay: not given; details: not given

melting point [°C]	SMILES
162	CC#CCOc1cc(Oc2ccc(C#N)cc2)ncn1 [present compound (41), 4-(2-butynyloxy)-6-(4-cyanophenoxy)pyrimidine]
77.5	CC#CCOc1cc(N(C)c2cccc(F)c2F)ncn1 [present compound (66), 4-(N-methyl-N-(2,3-difluorophenyl)amino)-6-(2-butynyloxy)pyrimidine]
60.1	CC#CCOc1cc(Oc2cccc(F)c2)ncn1 [present compound (61), 4-(3-fluorophenoxy)-6-(2-butynyloxy)pyrimidine]
81.4	C#CCOc1cc(Oc2ccc(F)cc2)ncn1 [present compound (35), 4-(4-fluorophenoxy)-6-(2-propynyloxy)pyrimidine]
100.3	C#CCOc1cc(Oc2ccc(Cl)cc2)ncn1 [present compound (14), 4-(4-chlorophenoxy)-6-(2-propynyloxy)pyrimidine]
59.6	CC#CCOc1cc(-c2ccccc2)ncn1 [present compound (38), 4-(2-butynyloxy)-6-phenylpyrimidine]
121.2	CC#CCOc1cc(Oc2cccc(C#N)c2)ncn1 [present compound (40), 4-(2-butynyloxy)-6-(3-cyanophenoxy)pyrimidine]
147.6	CC#CCOc1cc(Nc2cccc(F)c2F)ncn1 [present compound (73), 4-(N-(2,3-difluorophenyl)amino)-6-(2-butynyloxy)pyrimidine]
57.6	CC#CCOc1cc(N(C)c2ccccc2)ncn1 [present compound (93), 4-(N-methyl-N-phenylamino)-6-(2-butynyloxy)pyrimidine]
117.7	CC#CCOc1cc(Oc2ccc(Cl)cc2F)ncn1 [present compound (4), 4-(2-butynyloxy)-6-(4-chloro-2-fluorophenoxy)pyrimidine]
159.3	CC#CCOc1cc(Nc2ccccc2)ncn1 [present compound (53), 4-anilino-6-(2-butynyloxy)pyrimidine]
51.5	CC#CCOc1cc(Cc2cccc(F)c2)ncn1 [present compound (100), 4-(2-butynyloxy)-6-(3-fluorobenzyl)pyrimidine]
94	CC#CCOc1cc(Oc2cccc(C(C)=O)c2)ncn1 [present compound (71), 4-(2-butynyloxy)-6-(3-acetylphenoxy)pyrimidine]
84.9	CC#CCOc1cc(OCc2cccc(F)c2F)ncn1 [present compound (76), 4-(2,3-difluorobenzyloxy)-6-(2-butynyloxy)pyrimidine]
65.1	C#CCOc1cc(-c2ccccc2)ncn1 [present compound (37), 4-phenyl-6-(2-propynyloxy)pyrimidine]
72	C#CCOc1cc(Oc2ccc(OC)cc2)ncn1 [present compound (31), 4-(4-methoxyphenoxy)-6-(2-propynyloxy)pyrimidine]
79.8	CC#CCOc1cc(Oc2c(F)cccc2F)ncn1 [present compound (33), 4-(2-butynyloxy)-6-(2,6-difluorophenoxy)pyrimidine]
109.7	CC#CCOc1cc(Oc2ccc(F)c(F)c2)ncn1 [present compound (10), 4-(2-butynyloxy)-6-(3,4-difluorophenoxy)pyrimidine]
87.7	C#CCOc1cc(Oc2cc(Cl)ccc2Cl)ncn1 [present compound (25), 4-(2,5-dichlorophenoxy)-6-(2-propynyloxy)pyrimidine]
109.2	C#CCOc1cc(Oc2ccc(Cl)c(Cl)c2)ncn1 [present compound (23), 4-(3,4-dichlorophenoxy)-6-(2-propynyloxy)pyrimidine]
115.8	CC#CCOc1cc(Oc2ccc(F)cc2)ncn1 [present compound (62), 4-(4-fluorophenoxy)-6-(2-butynyloxy)pyrimidine]
64.8	C#CCOc1cc(Oc2ccccc2C)ncn1 [present compound (27), 4-(2-methylphenoxy)-6-(2-propynyloxy)pyrimidine]
106.7	C#CCOc1cc(Oc2ccc(Cl)cc2Cl)ncn1 [present compound (22), 4-(2,4-dichlorophenoxy)-6-(2-propynyloxy)pyrimidine]
74	C#CCOc1cc(OCC#C)ncn1 [present compound (52), 4,6-bis(2-propynyloxy)pyrimidine]
91.9	C#CCOc1cc(Oc2cccc(Cl)c2Cl)ncn1 [present compound (26), 4-(2,3-dichlorophenoxy)-6-(2-propynyloxy)pyrimidine]
132.1	CC#CCOc1cc(Oc2ccc([N+](=O)[O-])cc2F)ncn1 [present compound (65), 4-(2-fluoro-4-nitrophenoxy)-6-(2-butynyloxy)pyrimidine]
90.1	CC#CCOc1cc(Oc2ccc(F)c(C(F)(F)F)c2)ncn1 [present compound (48), 4-(2-butynyloxy)-6-(4-fluoro-3-trifluoromethylphenoxy)pyrimidine]
136.5	C#CCOc1cc(Oc2cc(Cl)cc(Cl)c2)ncn1 [present compound (24), 4-(3,5-dichlorophenoxy)-6-(2-propynyloxy)pyrimidine]

SMILES	melting point [°C]
C#CCOc1cc(Oc2cccc(Cl)c2)ncn1 [present compound (15), 4-(3-chlorophenoxy)-6-(2-propynyloxy)pyrimidine]	71.6
CC#CCOc1cc(OCC#CC)ncn1 [present compound (1), 4,6-bis(2-butynyloxy)pyrimidine]	82.9
C#CCOc1cc(Oc2ccccc2)ncn1 [present compound (51), 4-phenoxy-6-(2-propynyloxy)pyrimidine]	71.1
CC#CCOc1cc(OCC#CCC)ncn1 [present compound (6), 4-(2-butynyloxy)-6-(2-pentynyloxy)pyrimidine]	67.4
C#CCOc1cc(Oc2c(F)cccc2F)ncn1 [present compound (21), 4-(2,6-difluorophenoxy)-6-(2-propynyloxy)pyrimidine]	67.2
C#CCOc1cc(Oc2ccccc2Cl)ncn1 [present compound (19), 4-(2-chlorophenoxy)-6-(2-propynyloxy)pyrimidine]	76.2
CC#CCOc1cc(Cc2c(F)cccc2F)ncn1 [present compound (80), 4-(2,6-difluorobenzyl)-6-(2-butynyloxy)pyrimidine]	57.6
CC#CCOc1cc(Oc2c(F)cc(F)cc2F)ncn1 [present compound (45), 4-(2-butynyloxy)-6-(2,4,6-trifluorophenoxy)pyrimidine]	60.3
CC#CCOc1cc(-c2ccc(F)cc2F)ncn1 [present compound (44), 4-(2-butynyloxy)-6-(2,4-difluorophenyl)pyrimidine]	63.9

system: Western Flower Thrips (Frankliniella occidentalis); assay: Insecticidal test against western flower thrips, sprayed cucumber leaves (Test Example 3); assay type: in vivo; details: 500 ppm, sprayed 20 ml/cup onto cucumber, thirty larvae on cut first foliage leaves, after 7 days
Procedure: A formulation of a test compound obtained in Formulation Example 5 was diluted with water so that the active ingredient concentration came to 500 ppm to prepare a test spray solution. The seeds of cucumber were planted in polyethylene cups and grown until their first foliage leaves developed, and the above test spray solution was sprayed at the rate of 20 ml/cup onto these cucumber plants. After the chemical solution sprayed onto the cucumber plants was dried, the first foliage leaves were cut off and placed on a water-containing filter paper (70 mm in diameter) in a polyethylene cup (110 mm in diameter). Thirty larvae of western flower thrips (Frankliniella occidentalis) were set free in the polyethylene cup, and the lid was put on the polyethylene cup. After 7 days, the number of surviving insects was examined.

SMILES	number of surviving insects
CC#CCOc1cc(Cc2ccccc2F)ncn1 [(88)]	zero
C#CCOc1cc(Oc2ccccc2)ncn1 [(51)]	zero
CC#CCOc1cc(O[C@@H]2CCC[C@H]2C)ncn1 (relative stereo) [(169)]	zero
CCC#CCOc1cc(OCC#CCC)ncn1 [(3)]	zero
CC#CCOc1ncnc(Oc2cccc(F)c2F)c1F [(180)]	zero
CC#CCOc1ncnc(Oc2ccccc2F)c1F [(183)]	zero
CC#CCOc1cc(-c2ccccc2F)ncn1 [(55)]	zero
CC#CCOc1ncnc(Oc2c(F)cccc2F)c1F [(190)]	zero
CC#CCOc1cc(Oc2ccc(F)cc2Cl)ncn1 [(16)]	zero
C#CC(C)Oc1cc(-c2cccc(F)c2F)ncn1 (centres unmarked) [(134)]	zero
CC#CCOc1cc(Oc2cc(F)ccc2F)ncn1 [(43)]	zero
CC#CCOc1cc(Oc2c(F)cc(F)cc2F)ncn1 [(45)]	zero
C#CC(C)Oc1cc(-c2ccccc2F)ncn1 (centres unmarked) [(150)]	zero
C#CCOc1cc(Oc2c(F)cccc2F)ncn1 [(21)]	zero
C#CCOc1cc(Oc2ccccc2Cl)ncn1 [(19)]	zero
C#CCOc1cc(Oc2cccc(Cl)c2)ncn1 [(15)]	zero

SMILES	number of surviving insects
C#CCOc1cc(-c2ccccc2)nc(C)n1 [(77)]	zero
CC#CCOc1cc(OC2CCCC(C)C2)ncn1 (centres unmarked) [(182)]	zero
C#CCOc1cc(OCC#CC)ncn1 [(2)]	zero
CC#CCOc1cc(Cc2c(F)cccc2F)ncn1 [(80)]	zero
CC#CCOc1cc(OCC#CCC)ncn1 [(6)]	zero
CC#CCOc1cc(OCC#CC(C)(C)C)ncn1 [(7)]	zero
CC#CCOc1cc(-c2ccc(F)cc2)ncn1 [(59)]	zero
CC#CCOc1cc(-c2ccc(F)cc2F)ncn1 [(44)]	zero
CC#CCOc1cc(Oc2ccccc2F)ncn1 [(63)]	zero
C#CCOc1cc(Oc2ccc(C(F)(F)F)cc2)ncn1 [(20)]	zero
CC#CCOc1cc(-c2cccc(F)c2F)ncn1 [(83)]	zero
C#CCOc1cc(-c2ccc(F)cc2)ncn1 [(58)]	zero
C#CCOc1cc(Oc2cccc(C)c2)ncn1 [(29)]	zero
C#CCOc1cc(-c2cccc(F)c2F)ncn1 [(82)]	zero
CC#CCOc1ncnc(Cc2ccccc2F)c1F [(191)]	zero
